For 28 molecules, IC50 results are on record in patent US8624040B2, “Substituted hydroxamic acids and uses thereof” (Millennium Pharmaceuticals, Inc., priority 2009, dated 2014).

Structures are written as SMILES.

For the experiment, the target named is T1, purified human HDAC6 (Homo sapiens, UniProt Q9UBN7).
T1 construct: purchased BPS Bioscience 5006
T1 sequence (Q9UBN7 1-1215): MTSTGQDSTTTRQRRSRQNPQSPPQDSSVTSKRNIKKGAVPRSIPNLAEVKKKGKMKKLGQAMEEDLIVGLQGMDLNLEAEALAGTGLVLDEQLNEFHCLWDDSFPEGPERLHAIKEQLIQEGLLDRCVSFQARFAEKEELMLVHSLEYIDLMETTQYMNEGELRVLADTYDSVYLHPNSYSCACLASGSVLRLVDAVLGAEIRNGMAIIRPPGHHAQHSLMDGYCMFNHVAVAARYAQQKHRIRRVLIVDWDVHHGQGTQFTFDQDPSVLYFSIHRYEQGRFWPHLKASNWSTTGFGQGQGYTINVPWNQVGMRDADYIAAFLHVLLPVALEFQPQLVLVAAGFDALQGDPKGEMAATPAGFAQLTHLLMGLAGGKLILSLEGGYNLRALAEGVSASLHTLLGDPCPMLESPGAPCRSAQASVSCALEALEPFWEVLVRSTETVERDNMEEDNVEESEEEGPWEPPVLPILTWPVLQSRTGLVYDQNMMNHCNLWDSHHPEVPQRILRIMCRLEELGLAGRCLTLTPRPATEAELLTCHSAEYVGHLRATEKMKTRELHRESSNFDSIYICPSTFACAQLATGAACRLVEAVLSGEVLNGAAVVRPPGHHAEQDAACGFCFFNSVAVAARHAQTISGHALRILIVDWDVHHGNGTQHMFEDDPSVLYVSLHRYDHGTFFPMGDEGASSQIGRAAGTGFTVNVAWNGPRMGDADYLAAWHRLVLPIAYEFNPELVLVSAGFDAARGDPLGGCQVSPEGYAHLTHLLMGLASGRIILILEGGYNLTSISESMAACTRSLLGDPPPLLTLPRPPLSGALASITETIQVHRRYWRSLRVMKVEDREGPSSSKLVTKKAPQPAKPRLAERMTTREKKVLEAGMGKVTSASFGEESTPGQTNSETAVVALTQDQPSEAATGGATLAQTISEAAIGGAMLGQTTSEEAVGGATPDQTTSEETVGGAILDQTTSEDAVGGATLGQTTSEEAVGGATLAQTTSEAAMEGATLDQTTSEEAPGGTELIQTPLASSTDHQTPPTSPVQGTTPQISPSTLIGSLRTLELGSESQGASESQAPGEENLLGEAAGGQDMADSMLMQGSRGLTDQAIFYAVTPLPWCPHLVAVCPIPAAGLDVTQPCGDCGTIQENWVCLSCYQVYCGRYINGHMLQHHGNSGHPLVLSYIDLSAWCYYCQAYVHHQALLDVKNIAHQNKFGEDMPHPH
Briefly: HDAC6 Enzyme Assay. The format is biochemical. As to conditions: enzyme inhibition, substrate Ac-Arg-Gly-Lys(Ac)-AMC, 1 hour at 30° C. How it is done:
To measure the inhibition of HDAC6 activity, purified human HDAC6 (BPS Bioscience; Cat. No. 5006) is incubated with substrate Ac-Arg-Gly-Lys(Ac)-AMC peptide (Bachem Biosciences; Cat. No. I-1925) for 1 hour at 30° C. in the presence of test compounds or vehicle DMSO control. The reaction is stopped with the HDAC inhibitor trichostatin A (Sigma; Cat. No. T8552) and the amount of Arg-Gly-Lys-AMC generated is quantitated by digestion with trypsin (Sigma; Cat. No. T1426) and subsequent measurement of the amount of AMC released using a fluorescent plate reader (Pherastar; BMG Technologies) set at Ex 340 nm and Em 460 nm. Concentration response curves are generated by calculating the fluorescence increase in test compound-treated samples relative to DMSO-treated controls, and enzyme inhibition (IC50) values are determined from those curves.
In general, IC50 refers to the concentration at which inhibition is half-maximal. High values mean lower potency, low ones higher potency. In the case of `Cc1oc(S(=O)(=O)N2CCCCC2)cc1C(=O)N1CCc2cc(C(=O)NO)sc2C1` [Compound 16, N-hydroxy-6-[2-methyl-5-(piperidin-1-ylsulfonyl)-3-furoyl]-4,5,6,7-tetrahydrothieno[2,3-c]pyridine-2-carboxamide], the IC50 was < 50 nM.

For `O=C(NO)c1cc2c(s1)CN(C(=O)CC1c3ccccc3-c3ccccc31)CC2` [Compound 17, 6-(9H-fluoren-9-ylacetyl)-N-hydroxy-4,5,6,7-tetrahydrothieno[2,3-c]pyridine-2-carboxamide], the IC50 is > 1000 nM.

With `O=C(NO)c1cc2c(s1)CN(S(=O)(=O)CC(c1ccccc1)c1ccccc1)CC2` [Compound 18, 6-[(2,2-diphenylethyl)sulfonyl]-N-hydroxy-4,5,6,7-tetrahydrothieno[2,3-c]pyridine-2-carboxamide], the IC50 was < 50 nM.

For `CCCCS(=O)(=O)N1CCc2cc(C(=O)NO)sc2C1` [Compound 19, 6-(butylsulfonyl)-N-hydroxy-4,5,6,7-tetrahydrothieno[2,3-c]pyridine-2-carboxamide], the IC50 is < 50 nM.

With `Cc1noc(C)c1S(=O)(=O)N1CCc2cc(C(=O)NO)sc2C1` [Compound 20, 6-[(3,5-dimethylisoxazol-4-yl)sulfonyl]-N-hydroxy-4,5,6,7-tetrahydrothieno[2,3-c]pyridine-2-carboxamide], the half-maximal inhibitory concentration (IC50) was < 50 nM.

For the molecule `O=C(NO)c1cc2c(s1)CN(S(=O)(=O)c1ccc(C(F)(F)F)cc1)CC2` [Compound 21, N-hydroxy-6-{[4-(trifluoromethyl)phenyl]sulfonyl}-4,5,6,7-tetrahydrothieno[2,3-c]pyridine-2-carboxamide], the IC50 was < 50 nM.

For `O=C(NO)c1cc2c(s1)CN(Cc1ccc3c(c1)OCCCO3)CC2` [Compound 22, 6-(3,4-dihydro-2H-1,5-benzodioxepin-7-ylmethyl)-N-hydroxy-4,5,6,7-tetrahydrothieno[2,3-c]pyridine-2-carboxamide], the IC50 is < 50 nM.

On to `O=C(NO)c1cc2c(s1)CN(Cc1ccc(-n3cccn3)cc1)CC2` [Compound 23, N-hydroxy-6-[4-(1H-pyrazol-1-yl)benzyl]-4,5,6,7-tetrahydrothieno[2,3-c]pyridine-2-carboxamide], for which the IC50 was < 50 nM.

In the case of `Cc1nn(-c2ccccc2)nc1CN1CCc2cc(C(=O)NO)sc2C1` [Compound 24, N-hydroxy-6-[(5-methyl-2-phenyl-2H-1,2,3-triazol-4-yl)methyl]-4,5,6,7-tetrahydrothieno[2,3-c]pyridine-2-carboxamide], the IC50 is < 50 nM.

Regarding `O=C(NO)c1cc2c(s1)CN(Cc1cccc3nsnc13)CC2` [Compound 25, 6-(2,1,3-benzothiadiazol-4-ylmethyl)-N-hydroxy-4,5,6,7-tetrahydrothieno[2,3-c]pyridine-2-carboxamide], the IC50 is < 50 nM.

Regarding `CC(C)(C)C(=O)N1CCc2sc(C(=O)NO)cc2C1` [Compound 26, 5-(2,2-dimethylpropanoyl)-N-hydroxy-4,5,6,7-tetrahydrothieno[3,2-c]pyridine-2-carboxamide], the IC50 was < 50 nM.

Turning to `Cn1cccc1C(=O)N1CCc2sc(C(=O)NO)cc2C1` [Compound 27, N-hydroxy-5-[(1-methyl-1H-pyrrol-2-yl)carbonyl]-4,5,6,7-tetrahydrothieno[3,2-c]pyridine-2-carboxamide], the IC50 was < 50 nM.

For the molecule `CC1(C(=O)N2CCc3sc(C(=O)NO)cc3C2)CCCCC1` [Compound 28, N-hydroxy-5-(1-methylcyclohexanecarbonyl)-4,5,6,7-tetrahydrothieno[3,2-c]pyridine-2-carboxamide], the IC50 was < 50 nM.

`Cc1cnc(C(=O)N2CCc3sc(C(=O)NO)cc3C2)cn1` [Compound 29, N-hydroxy-5-(5-methylpyrazine-2-carbonyl)-4,5,6,7-tetrahydrothieno[3,2-c]pyridine-2-carboxamide] gave an IC50 of 50 to 100 nM.

As to `O=C(NO)c1cc2c(s1)CCN(C(=O)c1cccc3cccnc13)C2` [Compound 30, N-hydroxy-5-(quinolin-8-ylcarbonyl)-4,5,6,7-tetrahydrothieno[3,2-c]pyridine-2-carboxamide], the IC50 was < 50 nM.

`O=C(NO)c1cc2c(s1)CCN(C(=O)C1CCCCC1)C2` [Compound 31, 5-(cyclohexanecarbonyl)-N-hydroxy-4,5,6,7-tetrahydrothieno[3,2-c]pyridine-2-carboxamide]: the IC50 is < 50 nM.

As to `COc1cc(OC)nc(-c2ccc(C(=O)N3CCc4sc(C(=O)NO)cc4C3)cc2)n1` [Compound 32, 5-(4-(4,6-dimethoxypyrimidin-2-yl)benzoyl)-N-hydroxy-4,5,6,7-tetrahydrothieno[3,2-c]pyridine-2-carboxamide], the IC50 is < 50 nM.

For the molecule `O=C(NO)c1cc2c(s1)CCN(C(=O)C13CC4CC(CC(C4)C1)C3)C2` [Compound 33, 5-(adamantan-1-ylcarbonyl)-N-hydroxy-4,5,6,7-tetrahydrothieno[3,2-c]pyridine-2-carboxamide], the IC50 is < 50 nM.

For `O=C(NO)c1cc2c(s1)CCN(S(=O)(=O)c1ccc(C(F)(F)F)cc1)C2` [Compound 34, N-hydroxy-5-{[4-(trifluoromethyl)phenyl]sulfonyl}-4,5,6,7-tetrahydrothieno[3,2-c]pyridine-2-carboxamide], the IC50 is < 50 nM.

`O=C(NO)c1cc2c(s1)CN(C(=O)Nc1ccc(-c3ccccc3)s1)CC2` [Compound 40, N^2-hydroxy-N^6-(5-phenyl-2-thienyl)-4,7-dihydrothieno[2,3-c]pyridine-2,6(5H)-dicarboxamide]: the IC50 is < 50 nM.

For `O=C(NO)c1cc2c(s1)CN(C(=O)c1ccco1)CC2` [Compound 42, 6-(furan-2-carbonyl)-N-hydroxy-4,5,6,7-tetrahydrothieno[2,3-c]pyridine-2-carboxamide], the IC50 is < 50 nM.

Molecule `Cc1nc(C)c(CC(=O)N2CCc3cc(C(=O)NO)sc3C2)s1` [Compound 47, 6-[(2,4-dimethyl-1,3-thiazol-5-yl)acetyl]-N-hydroxy-4,5,6,7-tetrahydrothieno[2,3-c]pyridine-2-carboxamide] displayed a half-maximal inhibitory concentration (IC50) of 50 to 100 nM.

As to `Cc1ncc(C(=O)N2CCc3cc(C(=O)NO)sc3C2)c(-c2ccccc2)n1` [Compound 48, N-hydroxy-6-(2-methyl-4-phenylpyrimidine-5-carbonyl)-4,5,6,7-tetrahydrothieno[2,3-c]pyridine-2-carboxamide], the IC50 lay in the range of 50 to 100 nM.

Consider `Cc1cc(C(=O)N2CCc3cc(C(=O)NO)sc3C2)ccc1F` [Compound 51, 6-(4-fluoro-3-methylbenzoyl)-N-hydroxy-4,5,6,7-tetrahydrothieno[2,3-c]pyridine-2-carboxamide], for which the IC50 is < 50 nM.

In the case of `O=C(NO)c1cc2c(s1)CN(C(=O)Cc1cc(F)cc(F)c1)CC2` [Compound 52, 6-(2-(3,5-difluorophenyl)acetyl)-N-hydroxy-4,5,6,7-tetrahydrothieno[2,3-c]pyridine-2-carboxamide], the IC50 lay within 50 to 100 nM.

As for `O=C(NO)c1cc2c(s1)CN(C(=O)Nc1cccc(C(F)(F)F)c1)CC2` [Compound 54, N^2-hydroxy-N^6-[3-(trifluoromethyl)phenyl]-4,7-dihydrothieno[2,3-c]pyridine-2,6(5H)-dicarboxamide], the IC50 is < 50 nM.

Take `NC(=O)CSc1ccsc1C(=O)N1CCc2cc(C(=O)NO)sc2C1` [Compound 56, 6-({3-[(2-amino-2-oxoethyl)sulfanyl]-2-thienyl}carlbonyl)-N-hydroxy-4,5,6,7-tetrahydrothieno[2,3-c]pyridine-2-carboxamide]: the IC50 was > 1000 nM.

In turn, `Cc1noc(C)c1CC(=O)N1CCc2cc(C(=O)NO)sc2C1` [Compound 62, 6-(2-(3,5-dimethylisoxazol-4-yl)acetyl)-N-hydroxy-4,5,6,7-tetrahydrothieno[2,3-c]pyridine-2-carboxamide] returned an IC50 of 50 to 100 nM.
